Columns and labels:
EP2 = EP2 (Homo sapiens, UniProt P43116);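 note: functional calcium flux assay in stably transfected HEK293 cells expressing EP2 coupled via a promiscuous G protein, clytin luminescence read as area under the curve, 30 min compound preincubation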
EP4 = molecular target: T1, EP4 (Homo sapiens, UniProt P35408); assay: Functional calcium flux assay, EP4; format: cell-based; conditions: stably transfected HEK293 cells; PGE2 10 nM; read-out: EP4 Ca2+-flux assay IC50
T1 construct: host or cells: stably transfected HEK293 cells co-expressing a promiscuous G protein and a clytin variant
T1 sequence (P35408 whole entry): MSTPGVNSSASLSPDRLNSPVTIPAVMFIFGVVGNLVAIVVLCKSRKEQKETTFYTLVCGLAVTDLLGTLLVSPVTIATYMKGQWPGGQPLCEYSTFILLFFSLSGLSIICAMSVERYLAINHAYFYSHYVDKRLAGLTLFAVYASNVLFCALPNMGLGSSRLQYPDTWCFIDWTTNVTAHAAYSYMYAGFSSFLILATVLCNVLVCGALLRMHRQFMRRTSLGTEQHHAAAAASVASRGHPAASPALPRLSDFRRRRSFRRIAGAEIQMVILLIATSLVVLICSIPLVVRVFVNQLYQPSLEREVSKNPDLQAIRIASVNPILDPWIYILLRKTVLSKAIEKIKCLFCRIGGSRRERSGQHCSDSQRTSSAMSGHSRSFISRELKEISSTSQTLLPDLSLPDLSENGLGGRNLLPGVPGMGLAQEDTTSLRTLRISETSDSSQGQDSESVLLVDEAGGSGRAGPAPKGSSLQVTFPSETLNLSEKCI

Sequence of EP2 (P43116 whole entry): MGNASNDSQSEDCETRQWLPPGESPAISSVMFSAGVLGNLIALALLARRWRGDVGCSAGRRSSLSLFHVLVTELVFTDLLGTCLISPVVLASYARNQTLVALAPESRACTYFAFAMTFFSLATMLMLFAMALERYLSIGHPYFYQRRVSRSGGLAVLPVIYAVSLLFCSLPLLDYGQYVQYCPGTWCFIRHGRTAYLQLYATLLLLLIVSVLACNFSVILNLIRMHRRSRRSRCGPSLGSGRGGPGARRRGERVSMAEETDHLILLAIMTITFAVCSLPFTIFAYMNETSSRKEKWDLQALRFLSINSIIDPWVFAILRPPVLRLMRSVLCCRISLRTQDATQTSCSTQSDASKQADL

| Structure (SMILES) | IC50 (EP2) [nM] | IC50 (EP4) [nM] |
| --- | --- | --- |
| COc1cc(C#N)cc(-c2ccc(Cn3ccc4c(F)ccc(C(=O)NC5CC6(C5)CC(C(=O)O)C6)c43)cc2)c1 (stereo not shown) [Example 49, (Sa)-6-(1-((3’-cyano-5’-methoxy-[1,1′-biphenyl]-4-yl)methyl)-4-fluoro-1H-indole-7-carboxamido)spiro[3.3]heptane-2-carboxylic acid] | < 25 | < 1 |
| O=C(NC1CC2(C1)CC(C(=O)O)C2)c1ccc(Cl)c2cnn(Cc3ccc(-n4cccn4)cc3)c12 (stereo not shown) [Example 73, (Sa)-6-(1-(4-(1H-pyrazol-1-yl)benzyl)-4-chloro-1H-indazole-7-carboxamido)spiro[3.3]heptane-2-carboxylic acid] | 71 | 1.3 |
| COc1cccc(-c2ccc(C(C)n3ccc4c(F)ccc(C(=O)NC5CC6(C5)CC(C(=O)O)C6)c43)cc2)c1 (racemic) [Example 117, (Sa)-6-(4-fluoro-1-((racemic)-1-(3′-methoxy-[1,1′-biphenyl]-4-yl)-ethyl)-1H-indole-7-carboxamido)spiro[3.3]heptane-2-carboxylic acid] | 87 | 14 |
| O=C(NC1CC2(C1)CC(C(=O)O)C2)c1ccc(Cl)c2cnn(Cc3ccc(-c4cccc(OC(F)(F)F)n4)cc3)c12 (stereo not shown) [Example 86] | 36 | 1.8 |
| CN(C)c1cc(-c2ccc(Cn3ccc4c(F)ccc(C(=O)NC5CC6(C5)CC(C(=O)O)C6)c43)cc2)ccn1 (stereo not shown) [Example 22, 6-(1-(4-(2-(dimethylamino)pyridin-4-yl)benzyl)-4-fluoro-1H-indole-7-carboxamido)spiro[3.3]heptane-2-carboxylic acid] | 78 | < 1 |
| O=C(NC1CC2(C1)CC(C(=O)O)C2)c1ccc(F)c2ccn(Cc3ccc4cc(Br)ccc4c3)c12 (stereo not shown) [Example 42, (Sa)-6-(1-((6-bromonaphthalen-2-yl)methyl)-4-fluoro-1H-indole-7-carboxamido)spiro[3.3]heptane-2-carboxylic acid] | 37 | < 1 |
| COc1ccc2cc(Cn3ncc4c(Cl)ccc(C(=O)N[C@H]5CC6(C5)C[C@H](C(=O)O)C6)c43)ccc2n1 (stereo partly shown) [Example 175, (Sa)-6-(4-Chloro-1-((2-methoxyquinolin-6-yl)methyl)-1H-indazole-7-carboxamido)spiro[3.3]heptane-2-carboxylic acid] | < 25 | 5.6 |
| CCOc1cccc(-c2ccc(C(C)n3ncc4c(Cl)ccc(C(=O)NC5CC6(C5)CC(C(=O)O)C6)c43)cc2)n1 (racemic) [Example 134, (Sa)-6-(4-chloro-1-((racemic)-1-(4-(6-ethoxypyridin-2-yl)phenyl)-ethyl)-1H-indazole-7-carboxamido)spiro[3.3]heptane-2-carboxylic acid] | < 25 | 1.3 |
| COc1ccc2cc(-c3ccc(Cn4ncc5cc(Cl)cc(C(=O)NC6CC7(CC(CC(=O)O)C7)C6)c54)cc3)ccc2n1 (stereo not shown) [Example 147, (Ra)-2-(6-(5-Chloro-1-(4-(2-methoxyquinolin-6-yl)benzyl)-1H-indazole-7-carboxamido)spiro[3.3]heptan-2-yl)acetic acid] | < 25 | < 1 |
| CNC(=O)c1cccc(-c2ccc(Cn3ncc4c(Cl)ccc(C(=O)NC5CC6(C5)CC(C(=O)O)C6)c43)cc2)n1 (stereo not shown) [Example 85, (Sa)-6-(4-chloro-1-(4-(6-(methylcarbamoyl)pyridin-2-yl)benzyl)-1H-indazole-7-carboxamido)spiro[3.3]heptane-2-carboxylic acid] | 30 | < 1 |
| N#Cc1cccc(-c2ccc(Cn3ncc4c(Cl)ccc(C(=O)NC5CC6(CC(CC(=O)O)C6)C5)c43)cc2)c1 (stereo not shown) [Example 144, (Ra)-2-(6-(4-Chloro-1-((3′-cyano-[1,1-biphenyl]-4-yl)methyl)-1H-indazole-7-carboxamido)spiro[3.3]heptan-2-yl)acetic acid] | < 25 | < 1 |
| CCOc1cc(-c2ccc(C(C)n3ncc4cccc(C(=O)NC5CC6(C5)CC(C(=O)O)C6)c43)cc2)ccn1 (racemic) [Example 115, (Sa)-6-(1-((racemic)-1-(4-(2-ethoxypyridin-4-yl)phenyl)-ethyl)-1H-indazole-7-carboxamido)spiro[3.3]heptane-2-carboxylic acid] | 69 | 2.9 |
| CCOc1cc(-c2ccc(Cn3ccc4c(OC)ncc(C(=O)NC5CC6(C5)CC(C(=O)O)C6)c43)cc2)ccn1 (stereo not shown) [Example 89, (Sa)-6-(1-(4-(2-ethoxypyridin-4-yl)benzyl)-4-methoxy-1H-pyrrolo[3,2-c]pyridine-7-carboxamido)spiro[3.3]heptane-2-carboxylic acid] | 97 | 1.3 |
| CNC(=O)c1cc(-c2ccc(Cn3ccc4c(F)ccc(C(=O)NC5CC6(C5)CC(C(=O)O)C6)c43)cc2)ccn1 (stereo not shown) [Example 60, (Sa)-6-(4-fluoro-1-(4-(2-(methylcarbamoyl)pyridin-4-yl)benzyl)-1H-indole-7-carboxamido)spiro[3.3]heptane-2-carboxylic acid] | 40 | < 1 |
| O=C(NC1CC2(C1)CC(C(=O)O)C2)c1ccc(F)c2ccn(Cc3ccc4ccc(Br)cc4c3)c12 (stereo not shown) [Example 44, (Sa)-6-(1-((7-bromonaphthalen-2-yl)methyl)-4-fluoro-1H-indole-7-carboxamido)spiro[3.3]heptane-2-carboxylic acid] | 30 | < 1 |
| O=C(O)CC1CC2(C1)CC(NC(=O)c1cc(Cl)cc3cnn(Cc4ccc(-c5ccccc5)c(F)c4)c13)C2 (stereo not shown) [Example 151, (Ra)-2-(6-(5-Chloro-1-((2-fluoro-[1,1′-biphenyl]-4-yl)methyl)-1H-indazole-7-carboxamido)spiro[3.3]heptan-2-yl)acetic acid] | < 25 | < 1 |
| O=C(NC1CC2(C1)CC(C(=O)O)C2)c1cc(Cl)cc2cnn(Cc3ccc(-c4ccccc4)c(F)c3)c12 (stereo not shown) [Example 153, (Sa)-6-(5-Chloro-1-((2fluoro-[1,1′-biphenyl]-4-yl)methyl)-1H-indazole-7-carboxamido)spiro[3.3]heptane-2-carboxylic acid] | 95 | < 1 |
| O=C(O)CC1CC2(C1)CC(NC(=O)c1cc(OC(F)F)cc3cnn(Cc4ccc(-c5ccccc5)cc4)c13)C2 (stereo not shown) [Example 165, (Ra)-2-(6-(1-([1,1′-Biphenyl]-4-ylmethyl)-5-(difluoromethoxy)-1H-indazole-7-carboxamido)spiro[3.3]heptan-2-yl)acetic acid] | < 25 | 1 |
| COc1cc(F)cc(-c2ccc(Cn3ccc4c(F)ccc(C(=O)NC5CC6(C5)CC(C(=O)O)C6)c43)cc2)c1 (stereo not shown) [Example 53, (Sa)-6-(4-fluoro-1-((3’-fluoro-5’-methoxy-[1,1′-biphenyl]-4-yl)methyl)-1H-indole-7-carboxamido)spiro[3.3]heptane-2-carboxylic acid] | < 25 | < 1 |
| O=C(NC1CC2(C1)CC(C(=O)O)C2)c1ccc(Cl)c2ccn(Cc3ccc(-c4ccncc4)cc3)c12 (stereo not shown) [Example 67, (Sa)-6-(4-Chloro-1-(4-(pyridin-4-yl)benzyl)-1H-indole-7-carboxamido)spiro[3.3]heptane-2-carboxylic acid] | – | 6.6 |
| N#Cc1ccc(-c2ccc(Cn3ncc4c(Cl)ccc(C(=O)NC5CC6(CC(CC(=O)O)C6)C5)c43)cc2)cc1 (stereo not shown) [Example 145, (Ra)-2-(6-(4-Chloro-1-((4′-cyano-[1,1′-biphenyl]-4-yl)methyl)-1H-indazole-7-carboxamido)spiro[3.3]heptan-2-yl)acetic acid] | – | < 1 |
